Read-outs that look alike come from different tables or passages of the source.
Assays:
human basophils = assay: Inhibition of mediator (histamine, peptide leukotriene) liberation from human basophils stimulated with mite antigen; assay type: cell-based; details: enzyme immunoassay
Outline: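 Dextran-separated leukocyte fraction containing basophils from heparinized human blood, in D-PBS(+) with 0.1% BSA, pretreated with compound 15 min at 37 °C, then challenged with mite antigen for 10 min. Released histamine and peptide leukotrienes in supernatant quantified by enzyme immunoassay.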

RBL-2H3 cells = assay: Inhibition of serotonin liberation from IgE-sensitized RBL-2H3 cells after antigen stimulation; assay type: cell-based, rat; details: Rattus norvegicus
Outline: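 Rat RBL-2H3 cells labelled with [3H]-serotonin and sensitized with IgE simultaneously, incubated with compound, then challenged with specific antigen. Inhibition derived from [3H]-serotonin released into medium relative to release without compound.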

[1] = target: T1, tyrosine kinase of 72 kDa (Rattus norvegicus, UniProt Q64725); assay: Inhibition of activation (phosphorylation) of tyrosine kinase of 72 kDa due to antigenic stimulation in RBL-2H3 cells; assay type: cell-based
T1 construct: endogenous in cells; host or cells: RBL-2H3 cells
Procedure: RBL-2H3 cells were incubated for 10 min together with a test compound in a PBS buffer containing 0.1% of BSA and 1 mM of calcium. Next, the cells were reacted with an antigen specific for the IgE receptor for 10 min. After the completion of the antigenic stimulation, the cells were allowed to stand in ice for 1 hr in a 10 mM phosphate buffer (pH 7.5) containing a lysis buffer (1% Triton X-100, 0.1% SDS, 0.5% sodium deoxycholate, 50 mM NaCl, 50 mM NaF, 1 mM phenylmethyl sulfonyl fluoride, 50 μg/ml eupeptin, 10 unit/ml aprotonin) and 0.1% of NaN3 followed by centrifugation to give a cell lysate. This lysate was diluted with a buffer for electrophoresis, heated (95° C., 5 min) and then electrophoresed on a 10% SDS-polyacrylamide gel. After the electrophoresis, the sample was electrically transcribed onto a 0.2 μm nitrocellulose membrane and treated with an anti-phosphotyrosine antibody for 1 hr. Then the inhibitory activity was evaluated by the coloring analysis through chemiluminescence.

[2] = target: T2, IgE receptor γ chain and 72 kDa tyrosine kinase (Rattus norvegicus, UniProt Q64725); assay: Inhibition of binding of IgE receptor γ chain to tyrosine kinase of 72 kDa (kinase phosphorylation in RBL-2H3 lysate or cytosol); assay type: biochemical; details: Conc. of Compd. 10 μM
T2 construct: The phosphorylation experiment of the 72 kDa tyrosine kinase contained in the lysate or cytosol; endogenous in cells; host or cells: RBL-2H3 cell lysate (1% NP-40) or cytosolic fraction
Procedure: RBL-2H3 cells which are a cell line generally used in studying IgE-mediated intracellular signal transduction in mast cells and basophils were used in this study. Tyrosine-phosphorylated peptide in the tyrosine activation motif (TAM) region in the IgE receptor γ chain was synthesized by Peptide Institute.
In the experiment, cell lysates or cytosolic fraction of RBL-2H3 cells were used. Cell lysates were prepared by solubilizing 1×10^7 to 5×10^7 cells with a solution containing various protease inhibitors and 1%-NP-40 as a solubilizer. Separately, the cells were homogenized in a Downs homogenizer and centrifuged at 50,000 rpm for 1 hr, and the resulting supernatant was used as the cytosol fraction of the cells. The concentration of the lysate or cytosol was adjusted to 1 mg protein/ml with an isotonic buffer. The phosphorylation experiment of the 72 kDa tyrosine kinase contained in the lysate or cytosol was carried out in the following manner.
An assay buffer [150 mM NaCl, 10 mM KCl, 20 mM Tris (pH 7.5), 0.6 mM MnCl2, 0.5 mM EGTA, 5 mM NaF, 1 mM sodium pyrophosphate and 1 mM sodium orthovanadate] containing the lysate or cytosol in an amount corresponding to […] of protein was incubated together with the compound 101 at 30° C. for 3 min. After adding […] of the peptide in the TAM region containing the phosphorylated tyrosine and […] of ATP, the incubation was further effected at 30° C. for 15 min. After the completion of the reaction, the sample was electrophoresed on a 10% […] gel and a tyrosine kinase of 72 kDa was separated. The activation of this kinase was confirmed by examining the phosphorylation of the tyrosine moiety in the kinase per se by western blotting with the use of anti-tyrosine phosphorylation antibody. Then the extent of the phosphorylation was numerically expressed by using an image analyzer and thus the tyrosine kinase phosphorylation inhibitory ratio of the compound 101 was determined

[3] = histamine, read-out: IC50 (μM) in mediator liberation from human basophils: histamine
[4] = peptide leukotriene, read-out: IC50 (μM) in mediator liberation from human basophils: leukotriene
[5] = [3H]-serotonin release, IgE-sensitized RBL-2H3 cells, antigen stimulation, read-out: IC50 (μM) in serotonin liberation from RBL-2H3 cells

T1 sequence (Q64725 whole entry): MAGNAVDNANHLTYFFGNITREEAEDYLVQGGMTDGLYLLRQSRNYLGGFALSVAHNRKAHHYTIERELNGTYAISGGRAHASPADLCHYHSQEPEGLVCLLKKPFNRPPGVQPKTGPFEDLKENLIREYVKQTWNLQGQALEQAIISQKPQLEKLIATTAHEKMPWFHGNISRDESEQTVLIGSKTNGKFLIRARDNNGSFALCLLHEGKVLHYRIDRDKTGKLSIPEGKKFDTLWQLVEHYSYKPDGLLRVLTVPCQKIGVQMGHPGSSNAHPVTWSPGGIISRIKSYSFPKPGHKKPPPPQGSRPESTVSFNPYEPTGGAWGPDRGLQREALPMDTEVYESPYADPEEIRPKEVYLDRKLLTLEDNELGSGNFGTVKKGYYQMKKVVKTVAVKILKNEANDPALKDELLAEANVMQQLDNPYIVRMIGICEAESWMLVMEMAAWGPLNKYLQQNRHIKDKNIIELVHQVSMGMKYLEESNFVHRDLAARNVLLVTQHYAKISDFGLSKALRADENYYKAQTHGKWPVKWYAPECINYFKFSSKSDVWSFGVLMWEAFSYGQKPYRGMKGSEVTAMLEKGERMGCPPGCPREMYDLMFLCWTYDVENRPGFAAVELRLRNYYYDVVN
T2 sequence (Q64725 whole entry): as above

Inhibitory Strength (%) ([1]; Conc. of Compd. 3 μM) | Inhibitory Strength (%) [2] [%] | Inhibitory Strength (%) ([1]; Conc. of Compd. 10 μM) | Inhibitory Strength (%) ([1]; Conc. of Compd. 30 μM) | SMILES | IC50 (human basophils; [3]) [µM] | IC50 (human basophils; [4]) [µM] | IC50 (RBL-2H3 cells; [5]) [µM] | IC50 (RBL-2H3 cells; RBL-2H3, read-out: IC50 (μM) in serotonin liberation from RBL-2H3 cells) [µM]
100 | 80 |  |  | Cc1ccc2c(c1C)N(CCCNCc1ccccc1)c1ccccc1[S+]2[O-] (centres unmarked) [Example 22, 1,2-Dimethyl-10-(3-benzylaminopropyl)-phenothiazine-5-oxide] | 10 to 30 | 10 | 0.1 | 
 | 100 | 100 |  | Cc1ccc2c(c1C)N(CCCN1CCC(Cc3ccccc3)CC1)c1ccccc1[S+]2[O-] (centres unmarked) [Example 127] | 10 to 30 | 10 | 2 | 
 |  | 100 |  | Cc1ccc2c(c1C)N(CCNCc1ccccc1)c1ccccc1[S+]2[O-] (centres unmarked) [Example 143, 1,2-Dimethyl-10-(2-benzylaminoethyl)phenothiazine-5-oxide] | < 10 | < 10 | 3 | 
 |  | 100 |  | Cc1ccc2c(c1C)N(CCN(C)Cc1ccccc1O)c1ccccc1[S+]2[O-] (centres unmarked) [Example 179] | 10 to 30 | 3 to 10 | 2 | 
 |  |  | 30-70% | Cc1ccc2c(c1C)N(CCCNCc1ccccc1)c1cc(CCO)ccc1S2(=O)=O [Example 201] | 10 | < 10 | 10 | 
 |  |  | 80% | Cc1ccc2c(c1C)N(CCCN(CCO)Cc1ccccc1)c1ccccc1S2(=O)=O [Example 202] | 10 to 30 | < 10 | 6 | 
100 |  |  |  | Cc1ccc2c(=NOCCC(=O)O)c3ccccc3n(CCCNCc3ccccc3)c2c1C [Example 235] | 30 | 30 | < 1 | 

SMILES | Inhibitory Strength (%) ([1]; Conc. of Compd. 3 μM) | Inhibitory Strength (%) [2] [%] | Inhibitory Strength (%) ([1]; Conc. of Compd. 10 μM) | Inhibitory Strength (%) ([1]; Conc. of Compd. 30 μM) | IC50 (human basophils; [3]) [µM] | IC50 (human basophils; [4]) [µM] | IC50 (RBL-2H3 cells; [5]) [µM] | IC50 (RBL-2H3 cells; RBL-2H3, read-out: IC50 (μM) in serotonin liberation from RBL-2H3 cells) [µM]
Cc1ccc2c(c1C)N(CCCN1CCC(O)(c3ccccc3)CC1)c1ccccc1[S+]2[O-] (centres unmarked) [Example 124] |  | 100 | 100 |  | 10 to 30 | 10 |  | 2
